Source: article PMC7170309, “Imidazopyridine-fused [1,3]diazepinones: modulations of positions 2 to 4 and their impacts on the anti-melanoma activity” (Journal of Enzyme Inhibition and Medicinal Chemistry, 2020)

Experiments:
[1] = Calculated physicochemical parameters (molsoft cheminformatic tool); details: predicted
Procedure: Data set of physicochemical properties (cLogP, TPSA and molecular volume, Table 2) were calculated using the online available molsoft cheminformatic tool[23]. IC50 values of the compounds included in the test are presented in Table 1 for the correlations between IC50 and physicochemical properties of compounds modified in position 2 (Figure 2), and in Table S1 (SI) for the correlations between in vitro anti-cancer activity of JMV5038, compound 5 and […] on the NCI cell line panel (Figure 4). Pearson’s correlation coefficient r and level of significant p values were calculated using Origin Pro 2019.

[2] = tested on: NIH-3T3 non-cancerous cells; design: method as in PMID 24561668; details: even at 100 µM; cited from earlier work

molecular volume increase compared to JMV5038 [1] | Structure (SMILES) | cytotoxic activity on NIH-3T3 fibroblasts [2]
4% | C[C@@H]1NC(c2ccc(N=[N+]=[N-])cc2)=Nc2nc3ccccn3c2C1=O [Compound 5, (4S)-4-methyl-2-(4-azidophenyl)-3,4-dihydro-5H-pyrido[1’,2’:1,2]imidazo[4,5-d][1,3]diazepin-5-one] | 
 | C[C@@H]1NC(c2ccc(Br)cc2)=Nc2nc3ccccn3c2C1=O [JMV5038] | no significant cytotoxic activity
